# Experimental data as given in article PMC6155913, “Reaction of 3-Amino-1,2,4-Triazole with Diethyl Phosphite and Triethyl Orthoformate: Acid-Base Properties and Antiosteoporotic Activities of the Products” (Molecules : A Journal of Synthetic Chemistry and Natural …, 2017).
# Read-outs that look alike come from different tables or passages of the source.
# How the values were obtained:
# [1] = system: mouse macrophage-like J774E cells; assay: Antiproliferative activity, MTT assay; assay type: cell-based; details: J774E macrophages, 72 h exposure
# Description: To screen for potential antiosteoporotic activity of the bisphosphonates, their antiproliferative activity towards in vitro cell cultures was determined. J774E macrophages and osteoclasts are both derived from haematopoietic lineage and are highly endocytic and capable of demineralizing bone particles. Therefore, they are models for studies on the influence of bisphosphonates on the proliferation and activity of […]. For this purpose, mouse macrophage-like J774E cells, originating from the same precursors as the osteoclasts, were used. Such cells are well recognized for being sensitive to bisphosphonates, which likely act by inducing apoptosis in the cells. The J744E cell line was obtained from a cell bank at the Ludwik Hirszfeld Institute of Immunology and Experimental Therapy, Polish Academy of Sciences.
# This experiment was performed according to a previously published procedure. To use the cell line, it is necessary to first thaw the cells using a water bath at 37 °C and gentle stirring. The cells were placed into the culture medium. This line was passaged 2 times a week in RPMI (growth medium consisting of 10% FBS, 100 μg/mL streptomycin, 100 U/mL penicillin and 2 mM glutamine) in Petri dishes. The cell growth was monitored under a microscope, and part of the material was used in the next stage of the experiment. Then, the cells were separated from the bottom (the surface proteins present on the plasma membrane allowing adhesion were destroyed) and were collected from the culture vessel. Then, in a Bürker chamber, the cell density was counted using a drop of cell suspension in a mixture ratio of 1:1 with trypan blue.
# Then, a 96-well microtiter plate assay was performed with 100 μL of cells (5 × 10^4/mL) in a cultivation solution followed, after 24 h, by the addition of 100 μL of a solution of the tested compound (10^−3, 10^−4, 10^−5, or 10^−6 M) in the same medium. Plates were incubated at 37 °C in a humidified atmosphere saturated with 5% CO2. The in vitro cytotoxicities of all agents were examined by colorimetric MTT assay after 72 h of exposure of the cultured cells to varying concentrations of the tested compounds [32]. Briefly, 20 μL of the MTT solution (MTT: 3-(4,5-dimethylthiazol-2-yl)-2,5-diphenyl tetrazolium bromide) was added to each well and incubated for 4 h. After the incubation period was completed, 80 μL of the lysing mixture was added to each well (lysing mixture: 225 mL dimethylformamide, 67.5 g sodium dodecyl sulfate and 275 mL of distilled water). The optical densities of the samples were determined after 24 h using a Multiskan RC photometer (Labsystems, Helsinki, Finland) at 570 nm.
# [2] = Protonation constants by potentiometric titration; assay type: physicochemical; details: Potentiometry, 0.1 M KCl, 25 °C, [L] = 1 × 10^−3 M, error 1σ
# Description: (§1) The acid-base properties of compounds 1 and 2 were determined to understand their behaviour in aqueous solutions. These studies were performed using potentiometry prompted by pH-UV titration studies and, for compound 1, pH*-NMR titration studies (pH* = pH uncorrected for the isotopic effect).
# The titration studies of the compounds were carried out in double-distilled water using a Metrohm 809 Titrando system equipped with a combined glass electrode (Metrohm 6.0224.100) which was calibrated daily for hydrogen concentration using HCl (Merck, Warsow, Poland) (0.004 M) according to the procedure of Irving et al.. The ionic strength was fixed at I = 0.1 M with KCl (POCh). Alkali, CO2-free 0.1017 M KOH solution (POCh) was standardized by titration with potassium hydrogen phthalate (Merck). The ionic product of water under the experimental conditions was 10^−13.77 mol^2·dm^−6. The purity and exact concentration of each ligand were determined by the method of Gran. The titrations were carried out on 2.0 mL samples in a thermostatted cell at 25 ± 0.2 °C under a stream of Ar. The HYPERQUAD2013 computer program was applied to calculate the protonation constants. Triplicate titrations of each ligand (177–222 points) in a concentration of 1.0 × 10^−3 mol·dm^−3 were performed and used for the calculations. The distribution curves of the protonated species of the compounds (marked as L) as a function of pH were calculated using the HySS2009 program.
# [3] = Protonation constants by pH-UV (UV-Vis) titration; assay type: physicochemical; details: 0.1 M KCl, 25 °C, [L] = 7 × 10^−5 M, error 1σ
# Description: as §1
# The results of the potentiometric studies are supported by spectroscopic determination of the pK values of the studied compounds. The results, obtained from electronic spectra generated in the HypSpec program for the detected species, are presented in Table 2 and Figure S1. […] For compound 1, the band at approximately 215 nm was already present under a very acidic pH value (pH 1.57) (Figure 4). This band is assigned to the protonated 1,2,4-triazole. The band underwent a bathochromic shift to 230 nm when the pH rises, which is assigned to the H4L → H3L^− + H^+ deprotonation process at a pK4 of 4.22 or 4.16 (estimated potentiometrically or spectrophotometrically, respectively). This was the biggest change in absorption for the spectroscopic determination by UV spectrophotometry. This change was the reason for assigning the pK4 value to the deprotonation of 1,2,4-triazole. Adequate changes occur for the spectra of compound 2. […] Generally, spectroscopic titrations (see Figure S23 Supplementary Materials) are in a good agreement with potentiometric titrations and provide similar pK values.
# Absorption spectra for the compounds were collected using a Varian Cary 50 spectrophotometer (Varian, Mulgrave, Victoria, Australia) in Quartz Hellma curvets with a 1 cm optical path. The solutions were prepared by dissolving the appropriate concentration of ligands ([L] = 7 × 10^−5 mol·dm^−3) in 0.004 M HCl with 0.1 M ionic strength (KCl). The background electrolyte was used as a baseline reference. Solution pH was changed manually by adding small amounts of concentrated potassium hydroxide and checked the pH using the 913 Metrohm pH meter equipped with a combined glass electrode (Metrohm 6.0224.100, Herisau, Switzerland). The protonation constants and spectral deconvolution were refined using the least squares fitting program HypSpec. Factor analysis by the HypSpec software (http://www.hyperquad.co.uk/) was implemented to characterize the number of species present in the solution.
# [4] = cited from earlier work
smiles,measurement,setting,value
"O=P(O)(O)C(Nc1nc[nH]n1)P(=O)(O)O [Compound 1, 1,2,4-Triazolyl-3-yl-Aminomethylenebisphosphonic Acid]",IC50,[1],25 µM
same,IC50,"[1]; Mus musculus, Macrophage, 72 h",24.9 ± 5.17 µM
same,pK1(HL) amine,[2],11.52(3)
same,pK2(H2L) phosphonate,[2],9.62(3)
same,pK3(H3L) phosphonate,[2],6.54(4)
same,pK5(H5L) phosphonate,[2],1.48(4)
same,pK2(H2L) phosphonate,[2]; listed as compound 1,9.62
same,pK3(H3L) phosphonate,[2]; listed as compound 1,6.54
same,pK4(H4L) triazole,[2]; listed as compound 1,4.22
same,pK5(H5L) phosphonate,[2]; listed as compound 1,1.48
same,pK1(HL) amine,[3],11.68(2)
same,pK2(H2L) phosphonate,[3],9.32(5)
same,pK3(H3L) phosphonate,[3],6.15(6)
same,pK4(H4L) triazole,[3],4.16(6)
same,pK5(H5L) phosphonate,[3],0.67(6)
same,pK4(H4L) triazole,[3]; listed as compound 1,4.16
"O=P(O)(O)C(NC1CCCCCC1)P(=O)(O)O [incadronic acid, reference compound]",IC50,"[1]; Mus musculus, Macrophage, 72 h",47.9 ± 1.39 µM
"O=P(O)(O)C(O)(Cn1ccnc1)P(=O)(O)O [zoledronic acid, reference compound]",IC50,"[1]; Mus musculus, Macrophage, 72 h",24.5 ± 2.23 µM
"c1c[nH]nn1 [1,2,3-triazole]",pK of triazole,[4]; unsubstituted triazole,9.26
"c1nc[nH]n1 [1,2,4-triazole]",pK of triazole,[4]; unsubstituted triazole,9.95
"Nc1nc[nH]n1 [3-amino-1,2,4-triazole]",pK of triazole,"[4]; substituted triazole, previously reported",4.20
"OCCCn1cc(-c2ccccn2)nn1 [3-(4-(pyridine-2-yl)-1H-1,2,3-triazol-1-yl-propan-1-ol]",pK of triazole,"[4]; 1,2,3-triazole-pyridines, previously reported",3.40
CCn1cnc(NC(P(=O)(O)O)P(=O)(O)O)n1 [Compound 2],IC50,"[1]; Mus musculus, Macrophage, 72 h",30.6 ± 4.64 µM
same,pK1(HL) amine,[2],10.81(1)
same,pK2(H2L) phosphonate,[2],9.43(1)
same,pK3(H3L) phosphonate,[2],6.73(1)
same,pK5(H5L) phosphonate,[2],1.69(1)
same,pK2(H2L) phosphonate,[3],9.56(2)
same,pK3(H3L) phosphonate,[3],5.90(2)
same,pK4(H4L) triazole,[3],3.32(2)
same,pK4(H4L) triazole,[3]; listed as compound 2,3.32
